Experimental data from ChEMBL document CHEMBL1145594, “Carbonic anhydrase inhibitors: design of spin-labeled sulfonamides incorporating TEMPO moieties as probes for cytosolic or transmembrane isozymes” (Bioorg Med Chem Lett, 2008).

Molecular target: Carbonic anhydrase 9 (Homo sapiens, UniProt Q16790)
Description: Inhibition of human cloned carbonic anhydrase 9 by CO2 hydration stopped-flow assay

SMILES | Ki
CC1(C)CC(NC(=S)Nc2ccc(S(N)(=O)=O)cc2F)CC(C)(C)N1[O] | 22 nM
CC1(C)CC(NC(=S)Nc2ccc(S(=O)(=O)Nc3ccc(S(N)(=O)=O)cc3)cc2)CC(C)(C)N1[O] | 30 nM
CC1(C)CC(NC(=S)Nc2cccc(S(N)(=O)=O)c2)CC(C)(C)N1[O] | 132 nM
CC1(C)CC(NC(=S)NCc2ccc(S(N)(=O)=O)cc2)CC(C)(C)N1[O] | 35 nM
CC1(C)CC(NC(=S)Nc2ccc(S(=O)(=O)Nc3cccc(S(N)(=O)=O)c3)cc2)CC(C)(C)N1[O] | 220 nM
CC1(C)CC(NC(=S)Nc2ccc(S(=O)(=O)NCCc3ccc(S(N)(=O)=O)cc3)cc2)CC(C)(C)N1[O] | 41 nM
CC1(C)CC(NC(=S)Nc2ccc(S(N)(=O)=O)cc2Cl)CC(C)(C)N1[O] | 14 nM
CC1(C)CC(NC(=S)NCCc2ccc(S(N)(=O)=O)cc2)CC(C)(C)N1[O] | 39 nM
CC1(C)CC(NC(=S)Nc2ccc(S(=O)(=O)NCc3ccc(S(N)(=O)=O)cc3)cc2)CC(C)(C)N1[O] | 7 nM
